Test [1] concerns H6PD activity in LAPC4 cells. Nature of the test: Endoplasmic reticulum / microsomal NADPH in LAPC4 cells.
The next test relates to H6PD protein. Nature of the test: H6PD protein immunoblot in enz-treated cell lines. In kind it is cell-based, human. The note with it: in vitro, LAPC4, VCaP and MDA-Pca-2b; transcript not increased.
Test [2] has as its system H6PD. Nature of the test: H6PD protein in prostate cancer patient tissues. Set-up: species or system human. The note with it: men with prostate cancer treated with enz and prostate tissues treated ex vivo; compared with pre-treatment.
Test [3] has as its target T1, H6PD (Homo sapiens, UniProt O95479).
T1 sequence (O95479 20-791): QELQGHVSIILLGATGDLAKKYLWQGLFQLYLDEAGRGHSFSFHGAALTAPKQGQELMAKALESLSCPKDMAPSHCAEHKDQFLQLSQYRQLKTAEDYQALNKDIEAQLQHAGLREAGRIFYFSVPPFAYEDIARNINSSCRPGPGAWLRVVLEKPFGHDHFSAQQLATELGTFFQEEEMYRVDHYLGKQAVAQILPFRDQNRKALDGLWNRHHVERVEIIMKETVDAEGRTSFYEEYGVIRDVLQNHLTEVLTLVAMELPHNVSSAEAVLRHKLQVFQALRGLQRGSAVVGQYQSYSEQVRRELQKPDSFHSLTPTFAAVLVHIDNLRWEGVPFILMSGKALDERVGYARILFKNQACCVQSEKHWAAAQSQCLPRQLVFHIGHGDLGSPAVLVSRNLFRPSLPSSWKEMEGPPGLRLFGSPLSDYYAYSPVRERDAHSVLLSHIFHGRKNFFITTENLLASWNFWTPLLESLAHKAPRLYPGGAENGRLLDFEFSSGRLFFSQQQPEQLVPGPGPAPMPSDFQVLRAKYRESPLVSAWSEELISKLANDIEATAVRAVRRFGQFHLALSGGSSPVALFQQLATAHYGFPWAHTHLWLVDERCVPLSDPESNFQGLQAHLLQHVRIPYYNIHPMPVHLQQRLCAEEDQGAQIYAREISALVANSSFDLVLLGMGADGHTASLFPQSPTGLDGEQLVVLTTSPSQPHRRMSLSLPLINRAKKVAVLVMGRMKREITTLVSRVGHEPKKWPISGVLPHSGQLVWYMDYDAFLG
Nature of the test: In vitro H6PD activity assay. The class given is biochemical. The note with it: for inhibition of H6PD activity: fig. S10.

Test [4] concerns the target T1, H6PD. Nature of the test: Surface plasmon resonance. The class given is binding. The note with it: SPR; Fig. 4A and fig. S9.
Another test has as its target G6PD (Homo sapiens, UniProt P11413). Nature of the test: G6PD activity assay. The note with it: fig. S10. The class given is biochemical.
Test [5] deals with H6PD. The note with it: of four PARP inhibitors; cited from earlier work.
Test [6] concerns enz-resistant LAPC4 cells. Nature of the test: Cell viability assay. In kind it is cell-based, human. The note with it: 100 nM cortisol with 10 μM enz, 5 days; Fig 4E.
Test [7] concerns the target T1, H6PD. Nature of the test: H6PD IC50 assay. In kind it is biochemical. The note with it: for loss of H6PD inhibitory potency: relative to rucaparib.
The test system of a further test is prostate cancer cells. Nature of the test: Glucocorticoid metabolism with apalutamide treatment. The note with it: similar to enzalutamide. In kind it is cell-based, human.
In the next test the test system is PARP-1. The note with it: cited from earlier work.

The text below walks through data of paper PMC8319670 (Science translational medicine, 2021).

Sequence of G6PD (P11413 whole entry): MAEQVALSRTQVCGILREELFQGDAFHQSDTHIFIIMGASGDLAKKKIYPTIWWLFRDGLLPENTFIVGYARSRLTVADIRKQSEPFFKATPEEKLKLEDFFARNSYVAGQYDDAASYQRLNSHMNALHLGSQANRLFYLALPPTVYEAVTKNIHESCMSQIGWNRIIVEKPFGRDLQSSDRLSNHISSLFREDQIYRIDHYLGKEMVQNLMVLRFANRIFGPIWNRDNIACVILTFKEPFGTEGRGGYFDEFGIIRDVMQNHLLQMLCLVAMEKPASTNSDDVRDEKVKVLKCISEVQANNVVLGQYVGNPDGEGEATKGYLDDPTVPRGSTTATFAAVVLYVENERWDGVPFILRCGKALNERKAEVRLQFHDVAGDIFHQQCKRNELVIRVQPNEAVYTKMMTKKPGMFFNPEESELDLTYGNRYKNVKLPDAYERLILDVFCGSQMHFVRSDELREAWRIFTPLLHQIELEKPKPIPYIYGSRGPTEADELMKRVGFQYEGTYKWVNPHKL

For `CNC(=O)c1ccc(N2C(=S)N(c3ccc(C#N)c(C(F)(F)F)c3)C(=O)C2(C)C)cc1F` [enzalutamide], the “increase in NADPH generation in the endoplasmic reticulum” value in [1] (LAPC4 cells, continuous enz treatment, p<0.0001) was greater than 2 fold. Moreover, in the test with H6PD protein, the H6PD protein entry is “increased”. Besides, the “H6PD in patient tissues post-treatment” value with H6PD [2] was “increase in H6PD was also detectable”.

With `O=C(c1cc(Cc2n[nH]c(=O)c3ccccc23)ccc1F)N1CCN(C(=O)C2CC2)CC1` [olaparib], the “inhibition of H6PD activity” value on H6PD [3] was “but not olaparib inhibited H6PD activity”. Besides, the “binding to H6PD” value at H6PD [4] is reported as “but not olaparib (another PARP inhibitor) specifically bound H6PD”. For the same molecule, the “inhibition of G6PD activity” value against G6PD was “neither inhibited G6PD activity”.

In the case of `CNCc1ccc(-c2[nH]c3cc(F)cc4c3c2CCNC4=O)cc1` [rucaparib], the “H6PD generation of NADPH in enz-resistant prostate cancer” value in test [1] (enz-resistant LAPC4 cells, 24 hours, microsomal NADPH, Fig 4C) is “inhibited H6PD generation of NADPH”. Also, the “off-target H6PD inhibition” value in the test with H6PD [5] is reported as “off-target H6PD inhibition was specifically identified only with rucaparib”. The “H6PD generation of NADPH in vitro” value on H6PD [3] (H6PD protein, D-glucosamine 6-phosphate and NADP, 1 hour, Fig 4B) is “inhibited H6PD generation of NADPH in vitro”. The “inhibition of H6PD activity” value is recorded as “inhibited H6PD activity” against H6PD [3] and “modest H6PD inhibitor” against H6PD [3] (listed as Rucaparib). In test [6], the cell viability result is “limited cell viability in vitro”. For the same molecule, the “binding to H6PD” value at H6PD [4] was “specifically bound H6PD”. Besides, the “inhibition of G6PD activity” value against G6PD is on record as “neither inhibited G6PD activity”.

Consider `CNCc1ccc(-c2[nH]c3cc(F)cc4c3c2CCN(C)C4=O)cc1` [Compound 4], for which, on H6PD [7], the “loss of H6PD inhibitory potency” value was ~ 10 x.

Turning to `CNC(=O)c1ccc(N2C(=S)N(c3cnc(C#N)c(C(F)(F)F)c3)C(=O)C23CCC3)cc1F` [apalutamide], in the test on prostate cancer cells, the “changes in glucocorticoid metabolism” value was “induces similar changes in glucocorticoid metabolism”.

For the molecule `CNCc1ccc(-c2[nH]c3cccc4c3c2CCNC4=O)cc1` [Compound 2], the “loss of H6PD inhibitory potency” value on H6PD [7] is “greater than 20 x”.

In the case of `O=C1NCCc2c(-c3ccc(CO)cc3)[nH]c3cc(F)cc1c23` [Compound 5], the IC50 on H6PD [7] (read-out: H6PD IC50) worked out at 27 µM. The PARP inhibition activity entry in the test with PARP-1 is recorded as “poor PARP inhibition activity”.
